Results reported in ChEMBL document CHEMBL4483862, “Open-source discovery of chemical leads for next-generation chemoprotective antimalarials” (2018).

Tested on: Plasmodium berghei
Test: Luciferase/luciferin-expressing antifolate-resistant parasites were used to infect a culture of HepG2 cells that were pre-incubated with compounds. Infected hepatocytes emit light due to the luciferase reaction. Assay results are presented as the percent inhibition of light emission compared to control. […]
Format: functional
Settings: sporozoite; for IC90: read-out: LUCIFERASE INFECTION ASSAY - IC90
[1] = read-out: LUCIFERASE INFECTION ASSAY - IC50

Compound	IC90 [µM]	other results
Cc1cc(C(=O)NCCSc2ccccc2)c(C)n1C(C)C	6.44	IC50 (PBLUC_HILL_SLOPE 0.93, PBLUC_R_SQUARED 0.762, read-out: LUCIFERASE INFECTION ASSAY - IC50): 0.607 µM
CC(C)(C)c1ccc(NC(=O)N2CCCN(Cc3ccccc3)CC2)cc1	> 9.03	IC50 [1]: 8.75 µM
CC1CN(C(=O)c2ccc(CN3C(=O)CNC3=O)cc2)CCO1 (stereo unspecified)	> 10	IC50 [1]: > 10 µM
O=C(c1cccs1)N1CCN(C2c3ccccc3-c3ccccc32)CC1	> 9.15	IC50 (PBLUC_HILL_SLOPE 11.4, PBLUC_R_SQUARED 0.0886, read-out: LUCIFERASE INFECTION ASSAY - IC50): > 9.15 µM
CCCn1c(NC(=O)c2ccc(OCc3c(C)noc3C)c(OC)c2)nc2ccccc21	> 10	IC50 (PBLUC_HILL_SLOPE 3.7, PBLUC_R_SQUARED 0.447, read-out: LUCIFERASE INFECTION ASSAY - IC50): 6.12 µM
CCCc1ccc(C(=O)C(C)Sc2nnc(-c3ccc(OC(F)F)cc3)o2)cc1 (stereo unspecified)	> 10	IC50 [1]: > 10 µM
Cc1cc(C(=O)Nc2nc3ccccc3s2)c(C)n1C(C)C	0.946	IC50 [1]: 0.121 µM
Cc1ccc(C(C)C)cc1OCc1nnc2n(C)c(=O)c3ccccc3n12	> 10	IC50 [1]: > 10 µM
Cc1nnsc1-c1onc(C)c1C(=O)Nc1cc(Cl)cc(Cl)c1	> 8.94	IC50 (HEPG2TOX_HILL_SLOPE 2.99, HEPG2TOX_R_SQUARED 0.625, PBLUC_HILL_SLOPE 10.3, PBLUC_R_SQUARED 0.237, read-out: LUCIFERASE INFECTION ASSAY - IC50): 8.32 µM
Cc1cc(C(=O)CN2C(=O)NC(C)(C3CC3)C2=O)c(C)n1C(c1ccccc1)c1ccccc1 (stereo unspecified)	6.7	IC50 (FFLUC_HILL_SLOPE 14.7, FFLUC_R_SQUARED 0.253, PBLUC_HILL_SLOPE 1.67, PBLUC_R_SQUARED 0.756, read-out: LUCIFERASE INFECTION ASSAY - IC50): 1.8 µM
CC(C)(C)c1ccc(-c2nnc(SCC(=O)Nc3sccc3C(N)=O)n2C2CCCC2)cc1	> 10	IC50 (HEPG2TOX_HILL_SLOPE 7.51, 0.572, HEPG2TOX_R_SQUARED 0.693, 0.490, PBLUC_HILL_SLOPE 1.93, PBLUC_R_SQUARED 0.568, read-out: LUCIFERASE INFECTION ASSAY - IC50): 4.92 µM
O=c1cc(C(F)(F)F)[nH]n1-c1ccc(OC(F)(F)F)cc1	> 10.6	IC50 (HEPG2TOX_HILL_SLOPE 7.72, HEPG2TOX_R_SQUARED 0.792, PBLUC_HILL_SLOPE 12.3, PBLUC_R_SQUARED 0.186, read-out: LUCIFERASE INFECTION ASSAY - IC50): 9.78 µM
O=C(c1cccs1)N1[C@@H]2CC[C@@H](C2)[C@H]1c1nc2cccc(OCc3ccc(F)cc3)c2[nH]1	> 10	IC50 (FFLUC_HILL_SLOPE 9.4, FFLUC_R_SQUARED 0.0879, PBLUC_HILL_SLOPE 2.58, PBLUC_R_SQUARED 0.515, read-out: LUCIFERASE INFECTION ASSAY - IC50): 7.57 µM
OCc1ccc(-c2cn3c(-c4cccc(OC(F)(F)F)c4)cnc3cn2)cc1	4.85	IC50 (PBLUC_HILL_SLOPE 9.63, PBLUC_R_SQUARED 0.631, read-out: LUCIFERASE INFECTION ASSAY - IC50): 3.86 µM
COc1ccc2[nH]cc(CCNC(=O)c3ccc(-c4cccc(NC(C)=O)c4)nc3NCc3cccnc3)c2c1	5.13	IC50 (FFLUC_HILL_SLOPE 1.54, FFLUC_R_SQUARED 0.292, HEPG2TOX_HILL_SLOPE 0.912, HEPG2TOX_R_SQUARED 0.95, PBLUC_HILL_SLOPE 1.88, PBLUC_R_SQUARED 0.271, read-out: LUCIFERASE INFECTION ASSAY - IC50): 1.59 µM
O=C(NC1CC1)c1ccc(-c2cn3c(-c4ccc(CO)cc4)cnc3cn2)cc1	> 8.58	IC50 (FFLUC_HILL_SLOPE 0.381, FFLUC_R_SQUARED 0.0382, PBLUC_HILL_SLOPE 16.7, PBLUC_R_SQUARED 0.0287, read-out: LUCIFERASE INFECTION ASSAY - IC50): 8.32 µM
Nc1nc(C2COc3ccccc3O2)ncc1S(=O)(=O)c1ccc(Cl)cc1 (stereo unspecified)	> 8.17	IC50 (PBLUC_HILL_SLOPE 11.1, PBLUC_R_SQUARED 0.295, read-out: LUCIFERASE INFECTION ASSAY - IC50): 7.39 µM
CC(Sc1nnc(-c2ccccc2)c(-c2ccccc2)n1)C(=O)N1CCCC1 (stereo unspecified)	1.49	IC50 (HEPG2TOX_HILL_SLOPE 2.07, HEPG2TOX_R_SQUARED 0.202, PBLUC_HILL_SLOPE 16.4, PBLUC_R_SQUARED 0.575, read-out: LUCIFERASE INFECTION ASSAY - IC50): 1.3 µM
FC(F)(F)c1cc(-n2c(-c3cccnc3Oc3ccccc3)n[nH]c2=S)cc(C(F)(F)F)c1	4.66	IC50 (HEPG2TOX_HILL_SLOPE 12.4, HEPG2TOX_R_SQUARED 0.913, PBLUC_HILL_SLOPE 1.97, PBLUC_R_SQUARED 0.614, read-out: LUCIFERASE INFECTION ASSAY - IC50): 1.53 µM
CCOC(=O)c1sc(N)c(C#N)c1COC(=O)C1CCN(S(=O)(=O)c2ccc(C)c(C)c2)CC1	> 10	IC50 [1]: > 10 µM
COc1ccc(-c2cnc3cnc(-c4ccc(O)cc4)cn23)cc1	> 10.4	IC50 (HEPG2TOX_HILL_SLOPE 3.68, HEPG2TOX_R_SQUARED 0.904, PBLUC_HILL_SLOPE 3.01, PBLUC_R_SQUARED 0.439, read-out: LUCIFERASE INFECTION ASSAY - IC50): 5.92 µM

Compound	IC90 [µM]	other results
COc1ccccc1-c1nnc(SC(C(=O)Nc2cc(Cl)cc(Cl)c2)c2ccccc2)o1 (stereo unspecified)	7.61	IC50 (HEPG2TOX_HILL_SLOPE 8.26, HEPG2TOX_R_SQUARED 0.825, PBLUC_HILL_SLOPE 4.24, PBLUC_R_SQUARED 0.374, read-out: LUCIFERASE INFECTION ASSAY - IC50): 4.54 µM
Cc1c(S(=O)(=O)c2ccc(Cl)cc2)csc1S(=O)(=O)N1CCOCC1	> 7.82	IC50 [1]: > 7.82 µM
O=C1OCCC1Sc1nc(-c2ccccc2)c(-c2ccccc2)o1 (stereo unspecified)	> 9.78	IC50 (PBLUC_HILL_SLOPE 0.774, PBLUC_R_SQUARED 0.522, read-out: LUCIFERASE INFECTION ASSAY - IC50): 4.13 µM
CN(C)c1ccc(C2CNC(c3ccc(Cl)c([N+](=O)[O-])c3)c3[nH]c4ccccc4c32)cc1 (stereo unspecified)	> 10	IC50 (PBLUC_HILL_SLOPE 1.52, PBLUC_R_SQUARED 0.0896, read-out: LUCIFERASE INFECTION ASSAY - IC50): > 10 µM
C/C(=N\Nc1nc2ccccc2[nH]1)c1ccc2c(c1)OCO2	4.99	IC50 [1]: 4.04 µM
Cc1c(C(=O)NCc2ccc(Cl)c(Cl)c2)sc(=O)n1Cc1ccc(S(=O)(=O)N(C)C)cc1	> 6.41	IC50 (PBLUC_HILL_SLOPE 9.17, PBLUC_R_SQUARED 0.333, read-out: LUCIFERASE INFECTION ASSAY - IC50): 5.25 µM
c1ccc(C[n+]2ccc(-c3ncc(-c4ccc5ccccc5c4)o3)cc2)cc1	4.15	IC50 (HEPG2TOX_HILL_SLOPE 3.46, HEPG2TOX_R_SQUARED 0.77, PBLUC_HILL_SLOPE 12.4, 9.50, PBLUC_R_SQUARED 0.642, 0.816, read-out: LUCIFERASE INFECTION ASSAY - IC50): 3.38 µM
CC1(C(=O)NCc2cccnc2)CCN1Cc1ccccc1Cl (stereo unspecified)	> 10	IC50 (PBLUC_HILL_SLOPE 2.38, PBLUC_R_SQUARED 0.474, read-out: LUCIFERASE INFECTION ASSAY - IC50): 4.27 µM
CCC1CCCCN1C(=O)COC(=O)c1cc(C(C)(C)C)cc(C(C)(C)C)c1 (stereo unspecified)	> 10	IC50 [1]: > 10 µM
COc1cccc(NC(=O)c2cc(C)n(Cc3cccs3)c2C)c1	> 9.69	IC50 (PBLUC_HILL_SLOPE 0.906, PBLUC_R_SQUARED 0.33, read-out: LUCIFERASE INFECTION ASSAY - IC50): 6.44 µM
O=C1S/C(=C\c2ccccc2)C(=O)N1CCn1cnnn1	> 10	IC50 [1]: > 10 µM
CC(C)Oc1ccc(C(=O)NCC(=O)Nc2nc3c(s2)CCCC3)cc1	4.24	IC50 (PBLUC_HILL_SLOPE 9.11, PBLUC_R_SQUARED 0.281, read-out: LUCIFERASE INFECTION ASSAY - IC50): 3.33 µM
O=C(NCCO)c1cccc(-c2ccc3ncc(-c4cccc(OC(F)(F)F)c4)n3n2)c1	9.96	IC50 (PBLUC_HILL_SLOPE 3.2, PBLUC_R_SQUARED 0.416, read-out: LUCIFERASE INFECTION ASSAY - IC50): 5.01 µM
CC1C(=O)N(CC(O)COCc2ccccc2Cl)C(=O)N1c1ccccc1 (stereo unspecified)	> 10	IC50 (FFLUC_HILL_SLOPE 10.9, FFLUC_R_SQUARED 0.0106, read-out: LUCIFERASE INFECTION ASSAY - IC50): > 10 µM
Cc1ccc(SCc2cc(=O)n3nc(C)c(-c4ccccc4)c3[nH]2)cc1	> 9.13	IC50 (PBLUC_HILL_SLOPE 11, PBLUC_R_SQUARED 0.259, read-out: LUCIFERASE INFECTION ASSAY - IC50): 7.6 µM
COC(=O)[C@@H](NC(=O)Nc1ccc(-c2nc3ccccc3s2)cc1)C(C)C	> 8.61	IC50 (FFLUC_HILL_SLOPE 0.533, FFLUC_R_SQUARED 0.87, PBLUC_HILL_SLOPE 0.528, PBLUC_R_SQUARED 0.783, read-out: LUCIFERASE INFECTION ASSAY - IC50): 0.264 µM
COc1cccc(-c2cc(=O)[nH]c(Nc3nc(C)c4cc(C)ccc4n3)n2)c1	> 8.84	IC50 (HEPG2TOX_HILL_SLOPE 0.454, HEPG2TOX_R_SQUARED 0.693, PBLUC_HILL_SLOPE 1.82, PBLUC_R_SQUARED 0.608, read-out: LUCIFERASE INFECTION ASSAY - IC50): 2.67 µM
CC1(C)C=Cc2cc(C(=N)NOC(=O)c3cccs3)ccc2O1	0.21	–
COc1ccc(CC(N)c2csc(NC(=O)Nc3ccccc3C(C)(C)C)n2)cc1 (stereo unspecified)	4.27	IC50 (PBLUC_HILL_SLOPE 104, PBLUC_R_SQUARED 0.386, read-out: LUCIFERASE INFECTION ASSAY - IC50): 4.18 µM
Cn1cnc([N+](=O)[O-])c1Sc1cccs1	> 13.7	IC50 (FFLUC_HILL_SLOPE 1.45, FFLUC_R_SQUARED 0.647, PBLUC_HILL_SLOPE 13.1, PBLUC_R_SQUARED 0.224, read-out: LUCIFERASE INFECTION ASSAY - IC50): > 13.7 µM
